From patent US20240350669A1, “INHIBITION OF KYNURENINE SYNTHESIS AND/OR SIGNALING TO TREAT LEUKEMIA AND MYELODYSPLASIA” (THE TRUSTEES OF COLUMBIA UNIVERSITY IN THE CITY OF NEW YORK, priority 2022, published 2024)

What was measured:
WEHI-3B = assay: Transplant of Ido1-edited WEHI-3B cells into mice; format: in vivo, mouse; settings: edited WEHI-3B cells versus Cas9-only
Procedure: (§1) All leukemia models were introduced by intravenous (i.v.) injection and transplanted into non-irradiated secondary recipient experimental animals. BALB/c mice were used for the WEHI-3B leukemia model (0.5×10^6/cells/mouse) and C57BL/6J mice for MLL/AF9-dsRed (0.2×10^6/cells/mouse). Leukemia progression was assessed by fluorescence (MLL/AF9 dsRed) using the IVIS-Spectrum Optical Imaging System (Caliper, Perkin Elmer). Mice were shaved to reduce light attenuation.
The chemically modified sgRNAs targeting IDO1 were obtained and designed with at least 3 mismatches to decrease possible off target effects with the Synthego CRISPR design tool or the CRISPOR. […] In addition, lack of random effects due to TP53 activation, was shown by p16 and p21 mRNA level assessment in Cas9-only controls as well as in all the sgRNAs used. For 10^6 cells, 3 μg of TrueCut Cas9 protein V2 (Invitrogen) and 1.5 μg sgRNA were mixed in either SE (immortalized cell lines WEHI-3B and OCI-AML3) or P3 (primary mouse MLL/AF9 or patient-derived AML cells) buffer (Lonza, Amaxa X-Nucleofector Kit) and incubated 10 mins. Cells were then resuspended in their respective nucleofection buffer, mixed with the Cas9/sgRNA RNP complex or the Cas9 only as control, and electroporated with the Lonza 4D-Nucleofector (program DZ100, CM137 or DI100). […]

MLL/AF9 cells = assay: Transplant of Ido1-edited MLL/AF9 cells into WT non-irradiated recipients; format: in vivo, mouse; settings: for disease progression: exon-3-edited MLL/AF9 cells versus Cas9-only
IDO1 = assay: CRISPR/Cas9 Ido1 editing of primary murine MLL/AF9 cells; format: cell-based, mouse; settings: for deletion efficiency: Ido1 exon 3, MLL/AF9 cells
Procedure: The chemically modified sgRNAs targeting IDO1 were obtained and designed with at least 3 mismatches to decrease possible off target effects with the Synthego CRISPR design tool or the CRISPOR. […] In addition, lack of random effects due to TP53 activation, was shown by p16 and p21 mRNA level assessment in Cas9-only controls as well as in all the sgRNAs used. For 10^6 cells, 3 μg of TrueCut Cas9 protein V2 (Invitrogen) and 1.5 μg sgRNA were mixed in either SE (immortalized cell lines WEHI-3B and OCI-AML3) or P3 (primary mouse MLL/AF9 or patient-derived AML cells) buffer (Lonza, Amaxa X-Nucleofector Kit) and incubated 10 mins. Cells were then resuspended in their respective nucleofection buffer, mixed with the Cas9/sgRNA RNP complex or the Cas9 only as control, and electroporated with the Lonza 4D-Nucleofector (program DZ100, CM137 or DI100). After electroporation, cells were cultured in their respective media at 37° C. until sequencing analysis and/or injection. The editing efficiency data, indel contribution and Sanger sequence analyses were performed with the Synthego Performance Analysis, ICE Analysis. 2019. v2.0. (Synthego).

MLL/AF9 AML cells = assay: MLL/AF9 syngeneic leukemia model in non-irradiated WT mice; format: in vivo, mouse; settings: PTH 80 μg/kg/day i.p. versus vehicle
Procedure: PTH bone-anabolic treatment: mice were injected intraperitoneally (i.p.) with PTH (Bachem) at 80 μg/kg/day in PBS. Injections started 1 week before MLL/AF9 injection and continued along 2-3 more weeks until mice were harvest.
SB224289-SB9-(TOCRIS Cat #1221) treatment: mice were injected intraperitoneally (i.p.) daily with SB9 (5 mg/kg in 0.9% NaCl) 1 week after leukemia injection and for the duration of the experiment. Assuming a 20 g body weight (BW) and a 2 ml total blood volume per mouse—as well as an even distribution of the drug-systemic concentration of SB9 should be approximately 50 μg/ml. Based on the MW of SB9 (557.09), the final concentration—at equal distribution—in blood should be 8.97521e-05 M (≈90 μM).
Epacadostat (AdooQ Cat #A15554)-treatment: for the WT C57BL/6J mice, treatment started at the same time than MLL/AF9 cells were transplanted. For the patient-derived AML cells (PDX) transplanted into NSG mice, treatment started 8 weeks after transplant, at the same time than Ara-C and during 3 weeks. Mice were supplied with ad libitum epacadostat-supplemented diet (Research Diets Inc.) at 800 mg/kg (low-dose) or 1.6 g/kg (high-dose). For the PDX transplanted into NSGS mice, treatment started 3 weeks after transplant, by daily gavage at 300 mg/kg (InvivoChem Cat #: V0942, dissolved in 10% DMSO, 40% PEG 300 and 50% NaCl 0.9%) for 2 weeks.
as §1

[1] = test system: serotonin-HTR1B signaling; assay: Gene expression in bone of treated mice (targets of serotonin-HTR1B signaling); format: in vivo, mouse; settings: treated versus vehicle-treated mice
Procedure: RNA isolation, cDNA preparation and real-time PCR analyses were carried out following standard protocols. Total RNA from cortical bone (clean, flushed femurs, were centrifugated 20 seconds at 10.000 g's to remove any remaining BM) was extracted using TRIzol (Invitrogen) followed by RNA clean-up using PureLink RNA Mini Kit (Ambion, Invitrogen). mRNA was reversed transcribed using random hexamers RNA-to-cDNA kit (Takara). Specific forward and reverse primers were used in conjunction with PowerUp SYBR Green Master Mix (Applied Biosystems) for quantitative PCR. Expression levels were analyzed using the 2^−ΔΔCt method and were normalized for the expression of the housekeeping gene Hprt unless otherwise stated.

Molecule: sgRNA #146: mouse sgRNA targeting Ido1 exon 3: CGCCAUGGUGAUGUACCCCA GGG (guide CGCCAUGGUGAUGUACCCCAGGG; listed as RNA, chemistry not fully specified)
- survival (WEHI-3B): significant increased survivals
- disease progression (MLL/AF9 cells): abrogated
- deletion efficiency (IDO1): ~56%

Molecule: sgRNA #196: mouse sgRNA targeting Ido1 exon 3: CUGCCCACACUGAGCACGGA CGG (guide CUGCCCACACUGAGCACGGACGG; listed as RNA, chemistry not fully specified)
- disease progression (MLL/AF9 cells): significantly attenuated
- deletion efficiency (IDO1): ~40%

Molecule: sgRNA #203: mouse sgRNA targeting Ido1 exon 3: CAGUCCGUCCGUGCUCAGUG TGG (guide CAGUCCGUCCGUGCUCAGUGTGG; modified_base 21 OTHER; thymine)
- disease progression (MLL/AF9 cells): significantly attenuated
- deletion efficiency (IDO1): ~40%

Molecule: sgRNA #610: mouse sgRNA targeting Ido1 exon 4: UAGGGAACAGCAAUAUUGCG GGG (guide UAGGGAACAGCAAUAUUGCGGGG; listed as RNA, chemistry not fully specified)
- mice with complete protection against leukemia progression that survived (MLL/AF9 cells; exon-4-edited MLL/AF9 cells): 36%
- survival (MLL/AF9 cells; exon-4-edited MLL/AF9 cells versus Cas9-only): significant increase in survival
- MLL/AF9 cells efficiently targeted (IDO1; Ido1 exon 4): ~70%
- loss of expression of Ido1 at the mRNA level (IDO1; Ido1 exon 4, MLL/AF9 cells): 70%

B1: parathyroid hormone (peptide, UniProt P01270 32-115, looked up)
Parathyroid hormone: SVSEIQLMHNLGKHLNSMERVEWLRKKLQDVHNFVALGAPLAPRDAGSQRPRKKEDNVLVESHEKSLGEADKADVNVLTKAKSQ
modifications: Parathyroid hormone
notes: intermittent parathyroid hormone (Bachem), increases osteoblast numbers
- leukemia growth, disease progression and lifespan (MLL/AF9 AML cells): failed to curtail leukemia growth
- expression of Cyclins D1, D2 and E1 in bone [1]: did not change
